For assay [1], the target named is T1, motilin receptor preparation (Human antrum tissue) (Homo sapiens, UniProt O43193).
T1 construct: Human antrum tissue from Analytical Biological Services (Wilmington, Del.) was prepared as a motilin receptor preparation; tissue Analytical Biological Services (Wilmington, Del.); host or cells: human antrum (stomach) muscle tissue, crude membrane homogenate
In words: 125I-motilin binding to human antral stomach membranes. Details: % Inh (Human antrum): dose or concentration left out as unconfirmed. To be noted: for inhibition at 1 µM: read-out: Human Antrum % Inh @1 μM. Here is the method: Human antrum tissue from Analytical Biological Services (Wilmington, Del.) was prepared as a motilin receptor preparation in the following manner. The muscle tissue was homogenized in 10 volumes of 50 mM Tris-Cl, 10 mM MgCl2, 0.1 mg/ml bacitracin, and 0.25 mM Peflabloc, pH 7.5) in a Polytron (29000 rpm, 4×15 seconds). The homogenate was centrifuged at 1000×g for 15 minutes and the supernatant discarded. The pellet was washed twice before being suspended in homogenizing buffer. The crude homogenate was resuspended through a 23 gauge needle before aliquoting and storing at −80° C. The human cloned receptor was prepared from HEK 293 cells overexpressed with the motilin receptor. Cell pellets were thawed and resuspended in 2–3 volumes of homogenizing buffer (10 mM Tris-Cl, 0.2 mM MgCl2, 5 mM KCl, 5 μg/ml aprotinin, leupeptin, and pepstatin A, and 50 μg/ml bacitracin, pH 7.5) and allowed to sit on ice for 15–20 minutes. The suspension was homogenized on ice in a Dounce type homogenizer using 15 strokes. Sucrose and EDTA were added to a final concentration of 0.25M and 1 mM, respectively, and mixed with a few additional strokes. The material was centrifuged at 400×g for 5 minutes, and the supernatant saved. The pellet was re-resuspended twice with 5 ml homogenizing buffer and rehomogenized as before, and the supernatants combined. The supernatant was centrifuged at 100000×g for 1 hour. The pellet is retained and resuspended with 5 ml of homogenizing buffer through a 19 g and 25 g needle. The suspension is aliquoted and stored at −80° C. until used. The binding assay contains the following components (50 mM HEPES, 5 mM MgCl2, and 1 mM EGTA, pH 7.0, 15 mg/ml BSA, 10 μg/ml aprotinin, leupeptin, and pepstatin A, 0.25 mg/ml bacitracin, and 10 mM benzamidine), ^125I-radiolabelled porcine motilin (50000–70000 cpm; specific activity 2000 Ci/mmol), test compound, and membrane protein. After 60 minutes at 30° C., the samples are placed on ice and centrifuged for 1 minute at 13000×g. The pellet is washed twice with 1 ml cold saline, and after removal of the final supernatant, the pellet at the bottom of the tube is counted in a gamma counter. Non-specific binding is measured by the inclusion of 1 μM unlabelled motilin. IC50 values were determined from Kaleidograph curves.
125I-Motilin Binding to Human Antral Stomach Membranes and the Human Cloned Receptor: […]

Assay [2] relates to motilin induced contraction. The assay is described as follows: Rabbit tissue bath procedure: inhibition of motilin induced contraction of duodenum segments. Also noted: species or system New Zealand White rabbit. To be noted: 3 nM porcine motilin induced contraction, read-out: Tissues IC50. How it is done:
Rabbit Tissue Bath Procedure
One New Zealand White rabbit (Covance) of either sex was euthanized with an IV injection of Sleepaway. The duodenum was quickly excised, the lumen rinsed with saline to clean, and the tissue placed in cold, aerated (95% O2–5% CO2) Tyrodes buffer (NaCl 136.9 mM, KCl 2.7 mM, CaCl2 1.8 mM, MgCl2 1.04 mM, NaH2PO4 0.42 mM, NaHCO3 11.9 mM, Glucose 5.55 mM, pH 7.4). The duodenum, being kept moist at all times, was cleaned of any excess mesenteric tissue, and then cut into 3 cm segments starting at the proximal end. Sixteen tissue segments were usually prepared from each duodenum. These segments were tied on both ends with 3-0 silk suture (Ethicon). One end of the tissue was attached to an S-hook on a custom made glass support rod (Crown Glass Co., Somerville) and the rod plus tissue were placed in a 15 ml isolated tissue bath (Radnoti). The other end of the glass rod was attached to a Grass Force Displacement Transducer FT03. The tissue was maintained in room temperature Tyrodes buffer pH 7.4 and continually gassed with 95% O2— 5% CO2. The tissues were adjusted to 1.0 g resting tension and maintained at that tension throughout the equilibration period. An Ml2 Tissue Bath Computer was used to record and analyze data.
The tissues were washed twice during a 30 minute equilibration period and readjusted to 1 g resting tension as necessary. After equilibration the tissues were challenged with 3 μM Carbachol (Carbamoylcholine Chloride-Sigma). After maximal contraction was attained, the tissues were washed 3 times with Tyrodes. The tissues were allowed a 20 minute resting/equilibration period, during which time they were washed once and readjusted to 1 g resting tension. The tissues were challenged a second time with 3 μM Carbachol, and this contraction was considered as maximal, or 100% contraction. The tissues were washed 3 times, equilibrated for 10 minutes, washed again and readjusted to 1 g resting tension. Vehicle or test compound in 30% DMSO-50 mM HEPES was added directly to the bath and the tissues were incubated for 20 minutes. Test compounds and vehicle were run in duplicate.
The percent inhibition by test compound of the motilin induced contraction was calculated by first determining the ratio of the vehicle contractions with Motilin compared to the Carbachol contractions. This Tissue Adjustment Factor (TAF) was used to determine the value for the potential uninhibited contraction with Motilin for each tissue. The percent inhibition was then determined by dividing the actual Motilin contraction in treated tissues by the potential uninhibited contraction and subtracting this number from 1. IC50 values were determined by graphing results with Kaleidograph graphing program.

In assay [3] the target is T2, human cloned receptor (motilin receptor) (Homo sapiens, UniProt O43193).
T2 construct: expressed in transfected cells; host or cells: HEK 293 cells
The assay is described as follows: 125I-motilin binding to human cloned receptor (HEK 293 cells overexpressed with the motilin receptor). To be noted: HEK 293 membranes. How it is done:
Human antrum tissue from Analytical Biological Services (Wilmington, Del.) was prepared as a motilin receptor preparation in the following manner. The muscle tissue was homogenized in 10 volumes of 50 mM Tris-Cl, 10 mM MgCl2, 0.1 mg/ml bacitracin, and 0.25 mM Peflabloc, pH 7.5) in a Polytron (29000 rpm, 4×15 seconds). The homogenate was centrifuged at 1000×g for 15 minutes and the supernatant discarded. The pellet was washed twice before being suspended in homogenizing buffer. The crude homogenate was resuspended through a 23 gauge needle before aliquoting and storing at −80° C. The human cloned receptor was prepared from HEK 293 cells overexpressed with the motilin receptor. Cell pellets were thawed and resuspended in 2–3 volumes of homogenizing buffer (10 mM Tris-Cl, 0.2 mM MgCl2, 5 mM KCl, 5 μg/ml aprotinin, leupeptin, and pepstatin A, and 50 μg/ml bacitracin, pH 7.5) and allowed to sit on ice for 15–20 minutes. The suspension was homogenized on ice in a Dounce type homogenizer using 15 strokes. […] The pellet is washed twice with 1 ml cold saline, and after removal of the final supernatant, the pellet at the bottom of the tube is counted in a gamma counter. Non-specific binding is measured by the inclusion of 1 μM unlabelled motilin. IC50 values were determined from Kaleidograph curves. […]

Another assay addresses T3, Motilin Receptor (Oryctolagus cuniculus, UniProt G1T803).
T3 construct: The muscle tissue was homogenized in 10 volumes of 50 mM Tris-Cl; from tissue; host or cells: rabbit colon smooth muscle, crude membrane homogenate
In words: Motilin receptor binding, rabbit colon membranes, 125I porcine motilin. To be noted: rabbit colon membranes; for inhibition: read-out: Rabbit Colon % Inh; for IC50: read-out: Rabbit Colon IC50. Details: Rabbit Colon % Inh / inhibition / % Inh (Rabbit colon): dose or concentration left out as unconfirmed.

What is called IC50 is the concentration that inhibits the measured activity by half.

T1 sequence (O43193 whole entry): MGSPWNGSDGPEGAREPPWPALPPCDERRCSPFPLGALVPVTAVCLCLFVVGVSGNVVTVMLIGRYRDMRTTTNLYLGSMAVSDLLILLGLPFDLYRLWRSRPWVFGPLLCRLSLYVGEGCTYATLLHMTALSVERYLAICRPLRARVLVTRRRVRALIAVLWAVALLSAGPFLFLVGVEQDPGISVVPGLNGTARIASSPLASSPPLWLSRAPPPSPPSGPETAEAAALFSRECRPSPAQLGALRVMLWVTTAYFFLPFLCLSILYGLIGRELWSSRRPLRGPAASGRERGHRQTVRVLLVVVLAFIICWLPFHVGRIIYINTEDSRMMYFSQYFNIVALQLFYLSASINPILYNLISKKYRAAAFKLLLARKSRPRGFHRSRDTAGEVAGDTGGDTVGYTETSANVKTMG
T3 sequence (G1T803 1-400): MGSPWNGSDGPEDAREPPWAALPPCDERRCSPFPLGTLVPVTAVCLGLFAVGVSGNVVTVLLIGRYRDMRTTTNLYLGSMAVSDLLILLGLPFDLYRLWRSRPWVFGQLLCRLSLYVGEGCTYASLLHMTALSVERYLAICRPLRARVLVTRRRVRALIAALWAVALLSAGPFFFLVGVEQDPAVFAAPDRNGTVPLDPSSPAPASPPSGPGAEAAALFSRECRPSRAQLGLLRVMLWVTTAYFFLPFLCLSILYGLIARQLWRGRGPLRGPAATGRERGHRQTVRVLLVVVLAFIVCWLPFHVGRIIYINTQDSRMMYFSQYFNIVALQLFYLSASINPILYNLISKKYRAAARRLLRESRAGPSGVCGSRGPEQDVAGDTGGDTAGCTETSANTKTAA
T2 sequence (O43193 whole entry): as the sequence (O43193 whole entry) above

`CC(C)(C)C(=O)N(Cc1cccc(Cl)c1)C1CCC(CN(C(=O)c2ccc(F)cc2)c2cccc(OCCN3CCCC3)c2)C1` (centres unmarked) [compound 217]: the “Human Antrum % Inh @1 μM” value in assay [1] (human antrum membranes) worked out at 98%.

On to `CC(C)(C)C(=O)N(Cc1ccc(Cl)c(Cl)c1)C1CCCC(CN(C(=O)c2ccc(F)cc2)c2cccc(OCCN3CCCC3)c2)C1` (centres unmarked) [compound 227], for which, in assay [1] (human antrum membranes), the IC50 was found to be 25 nM and the inhibition at 1 µM was 100%.

`CC(C)(C)C(=O)N(Cc1ccccc1)C1CCC(CN(C(=O)c2ccc(F)cc2)c2cccc(OCCN3CCCC3)c2)C1` (centres unmarked) [compound 216]: in assay [1] (human antrum membranes), the “Human Antrum % Inh @1 μM” value was 100%.

As to `CC(C)(C)C(=O)N(Cc1cccc(Cl)c1)C1CCCC(CN(C(=O)c2ccc(F)cc2)c2cccc(OCCN3CCCC3)c2)C1` (centres unmarked) [compound 226], the IC50 is 32 nM in assay [1] (human antrum membranes) and 9 nM in assay [2]. The inhibition at 1 µM in assay [1] (human antrum membranes) was determined as 100%.

With `O=C(c1ccc(F)cc1)N(CC1CCC(N(Cc2cccc([N+](=O)[O-])c2)C(=O)C(Cl)(Cl)Cl)C1)c1cccc(OCCN2CCCC2)c1` (centres unmarked) [compound 219], in assay [1] (human antrum membranes), the IC50 was 7.6 nM and the “Human Antrum % Inh @1 μM” value amounted to 98%.

For the compound `CC[C@H](C)[C@H](NC(=O)[C@@H]1CCCN1C(=O)[C@@H](NC(=O)[C@@H](N)Cc1ccccc1)C(C)C)C(=O)N[C@@H](Cc1ccccc1)C(=O)N[C@H](C(=O)N[C@@H](Cc1ccc(O)cc1)C(=O)NCC(=O)N[C@@H](CCC(=O)O)C(=O)N[C@@H](CC(C)C)C(=O)N[C@@H](CCC(N)=O)C(=O)N[C@@H](CCCNC(=N)N)C(=O)N[C@@H](CCSC)C(=O)N[C@@H](CCC(N)=O)C(=O)N[C@@H](CCC(=O)O)C(=O)N[C@@H](CCCCN)C(=O)N[C@@H](CCC(=O)O)C(=O)N[C@@H](CCCNC(=N)N)C(=O)N[C@@H](CC(N)=O)C(=O)N[C@@H](CCCCN)C(=O)NCC(=O)N[C@@H](CCC(N)=O)C(=O)O)[C@@H](C)O` [Motilin], the results for the IC50 in assay [1] (125I-Motilin binding to human antral stomach membranes) and in assay [3] were 1 ± 0.1 nM and 3.55 ± 0.05 nM, respectively.

Consider `O=C(c1ccc(F)cc1)N(CC1CCCC(N(Cc2ccccc2)Cc2ccccc2)C1)c1cccc(OCCN2CCCC2)c1` (centres unmarked) [compound 222], for which, at Motilin Receptor (125I porcine motilin binding), the “% Inh (Rabbit colon)” value was 83%. Moreover, the “% Inh (Human antrum)” value in assay [1] (human antrum membranes, 125I porcine motilin binding) was 83%.

With `CC(C)(C)C(=O)N(Cc1ccccc1)C1C=CC(CN(C(=O)c2ccc(F)cc2)c2cccc(OCCN3CCCC3)c2)C1` (centres unmarked) [compound 221], in assay [1] (human antrum membranes), the “Human Antrum % Inh @1 μM” value turned out to be 94%.

For the compound `O=C(CCCC(=O)N(Cc1ccc(F)cc1)c1cccc(OCCN2CCCC2)c1)N(CCc1cccs1)Cc1cccc(Cl)c1` [compound 204], on Motilin Receptor, the inhibition was 89% and the IC50 was determined as 29 nM. Moreover, the IC50 in assay [2] came to 3 nM.

For the compound `CC(C)(C)C(=O)N(Cc1ccc(F)c(F)c1)C1CCCC(CN(C(=O)c2ccc(F)cc2)c2cccc(OCCN3CCCC3)c2)C1` (centres unmarked) [compound 228], in assay [1] (human antrum membranes), the IC50 was 25 nM and the inhibition at 1 µM came out at 100%.

For the compound `O=C(CCCC(=O)N(Cc1ccc(F)cc1)c1cccc(OCCN2CCCCC2)c1)N(CCc1ccccc1)Cc1ccccc1` [compound 182], at Motilin Receptor, the inhibition came to 94% and the IC50 was found to be 22 nM. In addition, the IC50 in assay [2] stood at 53 nM.

Turning to `O=C(CCCC(=O)N(Cc1ccccc1F)c1cccc(OCCN2CCOCC2)c1)N(CCc1ccccc1)Cc1ccccc1` [compound 170], the inhibition at Motilin Receptor is 81%. Besides, the IC50 at Motilin Receptor was determined as 163 nM; in assay [2], 185 nM.

For `O=C(c1ccc(F)cc1)N(C[C@H]1CC[C@@H](N(Cc2ccccc2)C(=O)C(Cl)(Cl)Cl)C1)c1cccc(OCCN2CCCC2)c1` [compound 231], in assay [1] (human antrum membranes), the “Human Antrum % Inh @1 μM” value came to 88%.

Regarding `CC(C)(C)C(=O)N(Cc1ccc(F)c(F)c1)[C@@H]1CC[C@H](CN(C(=O)c2ccc(F)cc2)c2cccc(OCCN3CCCC3)c2)C1` [compound 220], in assay [1] (human antrum membranes), the inhibition at 1 µM was 92%.

Turning to `Cc1c(OCCN2CCCC2)cccc1N(Cc1ccc(F)cc1)C(=O)CCCC(=O)N(CCc1ccccc1)Cc1ccccc1` [compound 196], on Motilin Receptor, the inhibition was determined as 100% and the IC50 was 6 nM. Moreover, in assay [2], the IC50 was 4 nM.

For the compound `O=C(c1ccc(F)cc1)N(CC1CCCC(N(Cc2ccccn2)C(=O)C(Cl)(Cl)Cl)C1)c1cccc(OCCN2CCOCC2)c1` (centres unmarked) [compound 90], on Motilin Receptor, the inhibition was 95% and the concentration for half-maximal inhibition (IC50) worked out at 490 nM. Moreover, in assay [2], the IC50 was > 300 nM.

Turning to `O=C(c1ccc(F)cc1)N(CC1CCCC(N(Cc2cccc(C(F)(F)F)c2)C(=O)C(Cl)(Cl)Cl)C1)c1cccc(OCCN2CCOCC2)c1` (centres unmarked) [compound 96], the inhibition at Motilin Receptor amounted to 71%. For the same compound, the IC50 was 1680 nM on Motilin Receptor and > 30 nM in assay [2].

As to `CN(C)CCOc1cccc(N(Cc2ccc(F)cc2)C(=O)CCCC(=O)N(CCc2ccccc2)Cc2ccccc2)c1` [compound 181], on Motilin Receptor, the inhibition stood at 100% and the IC50 amounted to 93 nM. Besides, the IC50 in assay [2] amounted to 12 nM.

For `O=C(c1ccc(F)cc1)N(C[C@H]1CC[C@@H](N(Cc2ccccc2)C(=O)C(Cl)(Cl)Cl)C1)c1cccc(OCCN2CCCC2)c1` [compound 218], the inhibition at 1 µM in assay [1] (human antrum membranes) is 98%. In addition, the IC50 in assay [2] worked out at 35 nM.

On to `O=C(CCCC(=O)N(Cc1ccc(F)cc1)c1cccc(OCCN2CCCC2)c1)N(CCc1ccccn1)Cc1cccc(Cl)c1` [compound 201], for which, at Motilin Receptor, the inhibition came out at 93% and the IC50 turned out to be 57 nM. In addition, the IC50 in assay [2] was found to be 16.8 nM.

As for `O=C(c1ccc(F)cc1)N(CC1CCCC(N(Cc2cccc([N+](=O)[O-])c2)C(=O)C(Cl)(Cl)Cl)C1)c1cccc(OCCN2CCOCC2)c1` (centres unmarked) [compound 93], the inhibition at Motilin Receptor was 100%. Also, the IC50 was 90 nM at Motilin Receptor and 20.5 nM in assay [2].

The values are drawn from patent US7112586B2, “Substituted diamine derivatives useful as motilin antagonists” (Ortho-McNeil Pharmaceutical, Inc., priority 2000, dated 2006).
